# Patent publication US20150376196A1, “4-SUBSTITUTED PYRROLO- AND PYRAZOLO-DIAZEPINES” (BAYER PHARMA AKTIENGESELLSCHAFT, priority 2013, published 2015)
# Read-outs that look alike come from different tables or passages of the source.
# Tests used:
# MOLP-8 cells = test: Cell proliferation assay (alamarBlue), MOLP-8; format: cell-based; settings: Homo sapiens, Multiple myeloma, 120 hours, inhibition of cell proliferation
# Protocol: (§1) In accordance with the invention, the ability of the substances to inhibit cell proliferation was determined Cell viability was determined by means of the alamarBlue® reagent (Invitrogen) in a Victor X3 Multilabel Reader (Perkin Elmer). The excitation wavelength was 530 nm and the emission wavelength […].
# The MOLP-8 cells (DSMZ, ACC 569) were sown at a concentration of 4000 cells/well in 100 μl of growth medium (RPMI1640, 20% FCS) on 96-well microtitre plates.
# (§2) The MDA-MB-231 cells (DSMZ, ACC 732) were sown at a concentration of 4000 cells/well in 100 μl of growth medium (DMEM/Ham's F12 medium, 10% FCS) on 96-well microtitre plates. After overnight incubation at 37° C., the fluorescence values (CI values) were determined. Then the plates were treated with various substance dilutions (1E-5 M, 3E-6 M, 1E-6 M, 3E-7 M, 1E-7 M, 3E-8 M, 1E-8 M) and incubated at 37° C. for 72 (MV-4-11, LOX-IMVI cells), 96 (MOLM-13, B16F10, […] cells), 120 (MOLP-8, KMS-12-PE cells) or 168 (LAPC-4 cells) hours. Subsequently, the fluorescence values were determined (CO values). For the data analysis, the CI values were subtracted from the CO values and the results were compared between cells which had been treated with various dilutions of the substance or only with buffer solution. The ICso values (substance concentration needed for 50% inhibition of cell proliferation) were calculated therefrom.
# (§3) The substances were tested in the cell lines in Table 1, which represent the indications specified by way of example: […]
# LAPC-4 cells = test: Cell proliferation assay (alamarBlue), LAPC-4; format: cell-based; settings: Homo sapiens, LAPC4, Prostate, 1 nM methyltrienolone, 168 hours, inhibition of cell proliferation
# Protocol: as §1
# The LAPC-4 cells (ATCC, PTA-1441TM) were sown at a concentration of 4000 cells/well in 100 μl of growth medium (RPMI1640, 2 mM L-glutamine, 10% cFCS) on 96-well microtitre plates. One day later, the LAPC-4 cells were treated with 1 nM methyltrienolone and various substance dilutions.
# as §2, §3
# MDA-MB-231 cells = test: Cell proliferation assay (alamarBlue), MDA-MB-231; format: cell-based; settings: Homo sapiens, Breast, 96 hours, inhibition of cell proliferation
# Protocol: as §1, §2, §3
# MOLM-13 cells = test: Cell proliferation assay (alamarBlue), MOLM-13; format: cell-based; settings: Homo sapiens, Leukaemia, 96 hours, inhibition of cell proliferation
# Protocol: as §1
# The MOLM-13 cells (DSMZ, ACC 554) were sown at a concentration of 4000 cells/well in 100 μl of growth medium (RPMI1640, 10% FCS) on 96-well microtitre plates.
# as §2, §3
# B16F10 cells = test: Cell proliferation assay (alamarBlue), B16F10; format: cell-based; settings: Mus musculus, B16-F10, Melanoma (BRAF wild-type), 96 hours, inhibition of cell proliferation
# Protocol: as §1
# The B16F10 cells (ATCC, CRL-6475) were sown at a concentration of 300-500 cells/well in 100 μl of growth medium (DMEM with phenol red, 10% FCS) on 96-well microtitre plates.
# as §2, §3
# BRD4 (BD1) = molecular target: T1, BRD4 (BD1) (Homo sapiens, UniProt O60885); test: Binding assay BRD4/acetylated peptide H4 (TR-FRET protein-protein interaction assay)
# T1 construct: amino acids 67-152, longer constructs also being possible, preferably amino acids 44-168; made in house; host or cells: E. coli
# Text: To assess the BRD4 binding strength of the substances described in this application, the ability thereof to inhibit the interaction between BRD4 (BD1) and acetylated histone H4 in a dose-dependent manner was quantified.
# For this purpose, a time-resolved fluorescence resonance energy transfer (TR-FRET) assay was used, which measures the binding between N-terminally His6-tagged BRD4 (BD1) (amino acids 67-152, longer constructs also being possible, preferably amino acids 44-168) and a synthetic acetylated histone H4 (Ac-H4) peptide with sequence GRGK(Ac)GGK(Ac)GLGK(Ac)GGAK(Ac)RHGSGSK-biotin. The recombinant BRD4 protein produced in-house according to Filippakopoulos et al., Nature, 2010, 468:1119-1123 was expressed in E. coli and purified by means of (Ni-NTA) affinity and (Sephadex G-75) size exclusion chromatography. The Ac-H4 peptide can be purchased, for example, from Biosyntan (Berlin, Germany).
# In the assay, typically 11 different concentrations of each substance (0.1 nM, 0.33 nM, 1.1 nM, 3.8 nM, 13 nM, 44 nM, 0.15 μM, 0.51 μM, 1.7 μM, 5.9 μM and 20 μM) were analysed as duplicates on the same microtitre plate. For this purpose, 100-fold concentrated solutions in DMSO were prepared by serial dilutions (1:3.4) of a 2 mM stock solution into a clear, 384-well microtitre plate (Greiner Bio-One, Frickenhausen, Germany). From this, 50 nl were transferred into a black test plate (Greiner Bio-One, Frickenhausen, Germany). The test was started by the addition of 2 μl of a 2.5-fold concentrated BRD4 solution (final concentration typically 10 nM in the 5 μl of reaction volume) in aqueous assay buffer [50 mM HEPES pH 7.5, 50 mM sodium chloride (NaCl), 0.25 mM CHAPS and 0.05% serum albumin (BSA)] to the substances in the test plate. This was followed by a 10-minute incubation step at 22° C. for the pre-equilibration of putative complexes between BRD4 and the substances.
# The mixture was then incubated in the dark at 22° C. for one hour and then at 4° C. for at least 3 hours and for no longer than overnight. The formation of BRD4/Ac-H4 complexes was determined by the measurement of the resonance energy transfer from the streptavidin-Eu cryptate to the anti-6His-XL665 antibody present in the reaction. For this purpose, the fluorescence emission was measured at 620 nm and 665 nm after excitation at 330-350 nm in a TR-FRET measuring instrument, for example a Rubystar or Pherastar (both from BMG Lab Technologies, Offenburg, Germany) or a Viewlux (Perkin-Elmer). The ratio of the emissions at 665 nm and at 622 nm was taken as an indicator of the amount of BRD4/Ac-H4 complexes formed.
# The data (ratios) obtained were normalized, with 0% inhibition corresponding to the mean from the measurements for a set of controls (typically 32 data points) in which all the reagents were present. In these, in place of test substances, 50 nl of DMSO (100%) were used Inhibition of 100% corresponded to the mean from the measurements for a set of controls (typically 32 data points) in which all the reagents except BRD4 were present. The IC50 was determined by regression analysis based on a 4-parameter equation (minimum, maximum, IC50, Hill; Y=max+(min−max)/(1+(X/IC50)^Hill)).
# [1] = BRD4 (BD1) / acetylated histone H4 peptide, TR-FRET, read-out: IC50 (BRD4)
Compound,IC50 (MOLP-8 cells),IC50 (LAPC-4 cells),IC50 (MDA-MB-231 cells),IC50 (MOLM-13 cells),IC50 (B16F10 cells),IC50 (BRD4 (BD1)),IC50 (BRD4 (BD1); [1])
COC(=O)C[C@@H]1N=C(c2ccc(Cl)cc2)c2c(cn(C)c2C)-n2c(C)nnc21 [Example 1],50 nM,50 nM,90 nM,130 nM,80 nM,10 nM,
"COC(=O)C[C@@H]1N=C(c2ccccc2)c2c(cn(C)c2C)-n2c(C)nnc21 [Example 2, 2-(4S)-(1,7,8-Trimethyl-6-phenyl-4,8-dihydropyrrolo[3,4f][1,2,4]triazolo[4,3-a][1,4]diazepin-4-yl)acetic acid methyl ester]",,30 nM,90 nM,330 nM,80 nM,10 nM,
"Cc1c2c(cn1C)-n1c(C)nnc1[C@H](CC(=O)N1CCS(=O)(=O)CC1)N=C2c1ccc(Cl)cc1 [Example 8, (−)-2-[(4S)-6-(4-Chlorophenyl)-1,7,8-trimethyl-4,8-dihydropyrrolo[3,4f][1,2,4]triazolo[4,3-a][1,4]diazepin-4-yl]-1-(1,1-dioxidothiomorpholino)ethan-1-one]",440 nM,360 nM,,560 nM,670 nM,,100 nM
"Cc1c2c(cn1C)-n1c(C)nnc1[C@H](CC(=O)Nc1ccc3c(c1)CC(=O)N3)N=C2c1ccc(Cl)cc1 [Example 13, 2-[(4S)-6-(4-Chlorophenyl)-1,7,8-trimethyl-4,8-dihydropyrrolo[3,4-f][1,2,4]triazolo[4,3-a][1,4]diazepin-4-yl]-N-(2-oxo-2,3-dihydro-1H-indol-5-yl)acetamide]",220 nM,90 nM,,190 nM,330 nM,,40 nM
